Test results: patent publication US9295708B2, “Modified release formulations for oprozomib” (Onyx Therapeutics, Inc., priority 2012, dated 2016)
Values after ≈ are worked out from the molar mass of the structure shown.

Assay: API solubility in water
Assay type: physicochemical

- solubility: ~500 µg/mL (≈ 939 µM)
SMILES: COC[C@H](NC(=O)c1cnc(C)s1)C(=O)N[C@@H](COC)C(=O)N[C@@H](Cc1ccccc1)C(=O)[C@@]1(C)CO1 [API, Oprozomib]
